In patent publication US20240100170A1, “CYCLIC-AMP RESPONSE ELEMENT BINDING PROTEIN (CBP) AND/OR ADENOVIRAL E1A BINDING PROTEIN OF 300 KDA (P300) DEGRADATION COMPOUNDS AND METHODS OF USE” (CULLGEN (SHANGHAI), INC., priority 2020, published 2024):
Read-outs that look alike come from different tables or passages of the source.

What was measured:
[1] = tested on: LNCaP prostate cancer cell; test: LNCaP cell viability (CellTiter-Glo); type: cell-based; conditions: Homo sapiens, 72 h, LNCaP cell viability, 3 days, CellTiter-Glo
How it was run: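 LNCaP cells (5000/well, RPMI 1640 + 10% FBS, 37 °C) treated with compounds in 12-point 3-fold serial dilution for three days. Viability read by CellTiter-Glo luminescence, normalized to untreated cells; IC50 from least-squares nonlinear regression.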

[2] = molecular target: P300 (Homo sapiens, UniProt Q09472); test: percentage of inhibition (degradation) of p300 at 10 nM, Tables 2-4; type: cell-based; set-up: LNCaP or 22RV1 cells that express CBP/P300 proteins were treated with GNE-781 or the bivalent compounds; endogenous in cells; host or cells: LNCaP or 22RV1 (not given); conditions: read-out: Degradation (10 nM)
Chain of P300 (Q09472 whole entry): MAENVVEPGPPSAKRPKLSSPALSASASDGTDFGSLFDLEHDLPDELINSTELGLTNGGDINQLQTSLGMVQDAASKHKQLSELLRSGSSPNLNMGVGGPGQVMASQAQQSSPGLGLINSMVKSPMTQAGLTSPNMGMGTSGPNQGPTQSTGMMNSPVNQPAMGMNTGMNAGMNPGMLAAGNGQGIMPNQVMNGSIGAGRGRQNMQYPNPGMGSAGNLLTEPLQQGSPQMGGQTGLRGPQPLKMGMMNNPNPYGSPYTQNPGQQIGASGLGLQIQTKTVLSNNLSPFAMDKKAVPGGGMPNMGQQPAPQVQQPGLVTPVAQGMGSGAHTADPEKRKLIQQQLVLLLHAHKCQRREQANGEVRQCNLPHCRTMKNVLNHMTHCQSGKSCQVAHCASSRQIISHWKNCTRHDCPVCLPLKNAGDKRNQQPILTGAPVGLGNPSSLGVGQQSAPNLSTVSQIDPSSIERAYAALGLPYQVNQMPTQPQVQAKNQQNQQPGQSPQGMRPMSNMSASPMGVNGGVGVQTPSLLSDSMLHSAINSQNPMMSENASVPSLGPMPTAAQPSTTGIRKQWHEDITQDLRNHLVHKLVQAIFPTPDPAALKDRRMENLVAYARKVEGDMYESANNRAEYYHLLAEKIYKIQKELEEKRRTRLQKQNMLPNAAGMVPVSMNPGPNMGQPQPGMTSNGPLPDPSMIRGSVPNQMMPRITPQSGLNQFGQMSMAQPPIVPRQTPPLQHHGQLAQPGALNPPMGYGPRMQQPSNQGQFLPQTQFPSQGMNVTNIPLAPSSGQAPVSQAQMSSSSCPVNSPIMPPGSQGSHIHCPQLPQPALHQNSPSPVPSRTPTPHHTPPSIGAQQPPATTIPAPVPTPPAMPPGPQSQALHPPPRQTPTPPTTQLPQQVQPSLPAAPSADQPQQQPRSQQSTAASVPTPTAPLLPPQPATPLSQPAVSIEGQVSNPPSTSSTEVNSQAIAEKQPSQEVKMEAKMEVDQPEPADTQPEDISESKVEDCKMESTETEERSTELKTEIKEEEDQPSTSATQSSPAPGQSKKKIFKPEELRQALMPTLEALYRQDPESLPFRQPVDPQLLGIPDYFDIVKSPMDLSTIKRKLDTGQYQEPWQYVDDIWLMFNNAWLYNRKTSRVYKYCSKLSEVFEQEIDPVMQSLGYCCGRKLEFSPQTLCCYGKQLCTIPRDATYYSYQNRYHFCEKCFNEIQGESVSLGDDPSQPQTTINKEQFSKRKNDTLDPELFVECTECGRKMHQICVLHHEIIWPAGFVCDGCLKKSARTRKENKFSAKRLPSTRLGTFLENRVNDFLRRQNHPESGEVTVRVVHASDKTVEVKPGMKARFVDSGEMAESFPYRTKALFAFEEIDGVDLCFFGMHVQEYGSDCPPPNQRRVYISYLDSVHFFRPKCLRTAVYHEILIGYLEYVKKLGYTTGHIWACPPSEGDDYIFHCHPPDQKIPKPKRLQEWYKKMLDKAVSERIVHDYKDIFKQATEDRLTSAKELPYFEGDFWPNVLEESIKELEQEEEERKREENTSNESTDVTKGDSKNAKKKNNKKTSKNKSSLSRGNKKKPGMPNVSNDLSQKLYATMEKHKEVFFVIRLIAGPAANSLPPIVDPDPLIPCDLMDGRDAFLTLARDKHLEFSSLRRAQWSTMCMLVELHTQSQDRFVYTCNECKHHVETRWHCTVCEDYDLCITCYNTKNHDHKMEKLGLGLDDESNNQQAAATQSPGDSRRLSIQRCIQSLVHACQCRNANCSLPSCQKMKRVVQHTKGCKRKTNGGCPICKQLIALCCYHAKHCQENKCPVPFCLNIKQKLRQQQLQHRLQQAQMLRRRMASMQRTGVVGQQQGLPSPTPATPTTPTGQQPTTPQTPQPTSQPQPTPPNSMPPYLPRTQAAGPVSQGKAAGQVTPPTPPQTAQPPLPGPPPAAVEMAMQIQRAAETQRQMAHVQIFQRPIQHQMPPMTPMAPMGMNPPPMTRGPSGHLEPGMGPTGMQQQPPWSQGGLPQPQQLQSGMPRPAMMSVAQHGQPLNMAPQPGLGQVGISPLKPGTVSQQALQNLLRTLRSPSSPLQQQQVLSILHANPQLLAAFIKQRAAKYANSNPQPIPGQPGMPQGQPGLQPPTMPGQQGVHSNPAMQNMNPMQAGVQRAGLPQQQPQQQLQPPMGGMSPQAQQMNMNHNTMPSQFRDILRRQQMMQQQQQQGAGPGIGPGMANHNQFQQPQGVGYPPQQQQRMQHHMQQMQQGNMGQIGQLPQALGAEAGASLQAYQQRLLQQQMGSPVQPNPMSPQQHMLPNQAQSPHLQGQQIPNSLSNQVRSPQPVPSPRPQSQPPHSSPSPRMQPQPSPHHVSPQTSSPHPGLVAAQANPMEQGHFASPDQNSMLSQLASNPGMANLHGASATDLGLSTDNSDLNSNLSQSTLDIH
How it was run: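 Degradation was measured at 10 nM. Cells or tissue were lysed in RIPA with protease and phosphatase inhibitors for 30 min at 4 °C and cleared, and protein was quantified by BCA. Lysates were resolved by SDS-PAGE, detected by chemiluminescent immunoblot, and bands were quantified by densitometry.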

Row | IC50 ([1]; Table 4) [nM] | inhibition at 0.01 µM ([2]; p300, 10 nM, Table 4) [%] | IC50 ([1]; Table 3) [nM] | inhibition at 0.01 µM ([2]; p300, 10 nM, Table 3) [%] | Structure (SMILES) | inhibition at 0.01 µM [2] [%]
1 | 51.2 | 20 to 50 |  |  | CC(=O)N1CCc2c(c(N3CCCc4cc(-c5cnn(C)c5)c(C(F)F)cc43)nn2C2CCN(C(=O)CCCN3CCC(CNc4cccc5c4n(C)c(=O)n5C4CCC(=O)NC4=O)CC3)CC2)C1 (centres unmarked) [P-214, 3-(4-(((1-(4-(4-(5-Acetyl-3-(7-(difluoromethyl)-6-(1-methyl-1H-pyrazol-4-yl)-3,4-dihydroquinolin-1(2H)-yl)-4,5,6,7-tetrahydro-1H-pyrazolo[4,3-c]pyridin-1-yl)piperidin-1-yl)-4-oxobutyl)piperidin-4-yl)methyl)amino)-3-methyl-2-oxo-2,3-dihydro-1H-benzo[d]imidazol-1-yl)piperidine-2,6-dione] | 
2 | 1.8 | > 80 |  |  | CC(=O)N1CCc2c(c(N3CCCc4cc(-c5cnn(C)c5)c(C(F)F)cc43)nn2C2CCN(C(=O)CN3CCC(C#Cc4cccc5c4n(C)c(=O)n5C4CCC(=O)NC4=O)CC3)CC2)C1 (centres unmarked) [P-227, 3-(4-((1-(2-(4-(5-acetyl-3-(7-(difluoromethyl)-6-(1-methyl-1H-pyrazol-4-yl)-3,4-dihydroquinolin-1(2H)-yl)-4,5,6,7-tetrahydro-1H-pyrazolo[4,3-c]pyridin-1-yl)piperidin-1-yl)-2-oxoethyl)piperidin-4-yl)ethynyl)-3-methyl-2-oxo-2,3-dihydro-1H-benzo[d]imidazol-1-yl)piperidine-2,6-dione] | 
3 | > 500 | < 20 |  |  | CC(=O)N1CCc2c(c(N3CCCc4cc(-c5cnn(C)c5)c(C(F)F)cc43)nn2C2CCN(CCCN3CCN(c4cccc5c4C(=O)N(C4CCC(=O)NC4=O)C5=O)CC3)CC2)C1 (centres unmarked) [P-247, 4-(4-(3-(4-(5-Acetyl-3-(7-(difluoromethyl)-6-(1-methyl-1H-pyrazol-4-yl)-3,4-dihydroquinolin-1(2H)-yl)-4,5,6,7-tetrahydro-1H-pyrazolo[4,3-c]pyridin-1-yl)piperidin-1-yl)propyl)piperazin-1-yl)-2-(2,6-dioxopiperidin-3-yl)isoindoline-1,3-dione] | 
4 | 179 | < 20 |  |  | CC(=O)N1CCc2c(c(N3CCCc4cc(-c5cnn(C)c5)c(C(F)F)cc43)nn2C2CCN(CCN3CCN(c4cccc5c4C(=O)N(C4CCC(=O)NC4=O)C5=O)CC3)CC2)C1 (centres unmarked) [P-191, 4-(4-(2-(4-(5-acetyl-3-(7-(difluoromethyl)-6-(1-methyl-1H-pyrazol-4-yl)-3,4-dihydroquinolin-1(2H)-yl)-4,5,6,7-tetrahydro-1H-pyrazolo[4,3-c]pyridin-1-yl)piperidin-1-yl)ethyl)piperazin-1-yl)-2-(2,6-dioxopiperidin-3-yl)isoindoline-1,3-dione] | 
5 | 18.7 | > 80 |  |  | CC(=O)N1CCc2c(c(N3CCCc4cc(-c5cnn(C)c5)c(C(F)F)cc43)nn2C2CCN(C(=O)CCN3CCC(CNc4ccc5c(c4)n(C)c(=O)n5C4CCC(=O)NC4=O)CC3)CC2)C1 (centres unmarked) [P-218, 3-(5-(((1-(3-(4-(5-Acetyl-3-(7-(difluoromethyl)-6-(1-methyl-1H-pyrazol-4-yl)-3,4-dihydroquinolin-1(2H)-yl)-4,5,6,7-tetrahydro-1H-pyrazolo[4,3-c]pyridin-1-yl)piperidin-1-yl)-3-oxopropyl)piperidin-4-yl)methyl)amino)-3-methyl-2-oxo-2,3-dihydro-1H-benzo[d]imidazol-1-yl)piperidine-2,6-dione] | 
6 |  |  | 74.5 | < 20 | CNC(=O)N1CCc2c(c(N3CCCc4cc(-c5cnn(C)c5)c(C(F)F)cc43)nn2C2CCN(C(=O)CCOCCC(=O)N[C@H](C(=O)N3C[C@H](O)C[C@H]3C(=O)NCc3ccc(-c4scnc4C)cc3)C(C)(C)C)CC2)C1 [P-065, 3-(7-(difluoromethyl)-6-(1-methyl-1H-pyrazol-4-yl)-3,4-dihydroquinolin-1(2H)-yl)-1-(1-(3-(3-(((S)-1-((2S,4R)-4-hydroxy-2-((4-(4-methylthiazol-5-yl)benzyl)carbamoyl)pyrrolidin-1-yl)-3,3-dimethyl-1-oxobutan-2-yl)amino)-3-oxopropoxy)propanoyl)piperidin-4-yl)-N-methyl-1,4,6,7-tetrahydro-5H-pyrazolo[4,3-c]pyridine-5-carboxamide] | 
7 | 17.6 | 50 to 80 |  |  | CC(=O)N1CCc2c(c(N3CCCc4cc(-c5cnn(C)c5)c(C(F)F)cc43)nn2C2CCN(Cc3ccc(COc4cccc5c4C(=O)N(C4CCC(=O)NC4=O)C5=O)cc3)CC2)C1 (centres unmarked) [P-195, 4-((4-((4-(5-acetyl-3-(7-(difluoromethyl)-6-(1-methyl-1H-pyrazol-4-yl)-3,4-dihydroquinolin-1(2H)-yl)-4,5,6,7-tetrahydro-1H-pyrazolo[4,3-c]pyridin-1-yl)piperidin-1-yl)methyl)benzyl)oxy)-2-(2,6-dioxopiperidin-3-yl)isoindoline-1,3-dione] | 
8 | 6.8 | > 80 |  |  | CC(=O)N1CCc2c(c(N3CCCc4cc(-c5cnn(C)c5)c(C(F)F)cc43)nn2C2CCN(C(=O)CCN3CCN(CCCc4ccc5c(c4)n(C)c(=O)n5C4CCC(=O)NC4=O)CC3)CC2)C1 (centres unmarked) [P-234, 3-(5-(3-(4-(3-(4-(5-acetyl-3-(7-(difluoromethyl)-6-(1-methyl-1H-pyrazol-4-yl)-3,4-dihydroquinolin-1(2H)-yl)-4,5,6,7-tetrahydro-1H-pyrazolo[4,3-c]pyridin-1-yl)piperidin-1-yl)-3-oxopropyl)piperazin-1-yl)propyl)-3-methyl-2-oxo-2,3-dihydro-1H-benzo[d]imidazol-1-yl)piperidine-2,6-dione] | 
9 | 0.1 | > 80 |  |  | CC(=O)N1CCc2c(c(N3CCCc4cc(-c5cnn(C)c5)c(C(F)F)cc43)nn2C2CCN(CCCC3CCN(c4cccc5c4C(=O)N(C4CCC(=O)NC4=O)C5=O)CC3)CC2)C1 (centres unmarked) [P-249, 4-(4-(3-(4-(5-acetyl-3-(7-(difluoromethyl)-6-(1-methyl-1H-pyrazol-4-yl)-3,4-dihydroquinolin-1(2H)-yl)-4,5,6,7-tetrahydro-1H-pyrazolo[4,3-c]pyridin-1-yl)piperidin-1-yl)propyl)piperidin-1-yl)-2-(2,6-dioxopiperidin-3-yl)isoindoline-1,3-dione] | 
10 | 1.4 | > 80 |  |  | CC(=O)N1CCc2c(c(N3CCCc4cc(-c5cnn(C)c5)c(C(F)F)cc43)nn2C2CCN(C(=O)CCCCCCNc3ccc(C(=O)NC4CCC(=O)NC4=O)c4ncccc34)CC2)C1 (centres unmarked) [P-240, 5-((7-(4-(5-acetyl-3-(7-(difluoromethyl)-6-(1-methyl-1H-pyrazol-4-yl)-3,4-dihydroquinolin-1(2H)-yl)-4,5,6,7-tetrahydro-1H-pyrazolo[4,3-c]pyridin-1-yl)piperidin-1-yl)-7-oxoheptyl)amino)-N-(2,6-dioxopiperidin-3-yl)quinoline-8-carboxamide] | 
11 | 7.9 | 50 to 80 |  |  | CC(=O)N1CCc2c(c(N3CCCc4cc(-c5cnn(C)c5)c(C(F)F)cc43)nn2C2CCN(Cc3ccc(CNc4cccc5c4CN(C4CCC(=O)NC4=O)C5=O)cc3)CC2)C1 (centres unmarked) [P-200] | 
12 | 2.5 | > 80 |  |  | CC(=O)N1CCc2c(c(N3CCCc4cc(-c5cnn(C)c5)c(C(F)F)cc43)nn2C2CCN(C(=O)CCN3CCC(CCc4ccc5c(c4)n(C)c(=O)n5C4CCC(=O)NC4=O)CC3)CC2)C1 (centres unmarked) [P-221, 3-(5-(2-(1-(3-(4-(5-acetyl-3-(7-(difluoromethyl)-6-(1-methyl-1H-pyrazol-4-yl)-3,4-dihydroquinolin-1(2H)-yl)-4,5,6,7-tetrahydro-1H-pyrazolo[4,3-c]pyridin-1-yl)piperidin-1-yl)-3-oxopropyl)piperidin-4-yl)ethyl)-3-methyl-2-oxo-2,3-dihydro-1H-benzo[d]imidazol-1-yl)piperidine-2,6-dione] | 

Row | Structure (SMILES) | IC50 ([1]; Table 4) [nM] | inhibition at 0.01 µM ([2]; p300, 10 nM, Table 4) [%] | IC50 ([1]; Table 3) [nM] | inhibition at 0.01 µM ([2]; p300, 10 nM, Table 3) [%] | inhibition at 0.01 µM [2] [%]
13 | CC(=O)N1CCc2c(c(N3CCCc4cc(-c5cnn(C)c5)c(C(F)F)cc43)nn2C2CCN(CCN3CCC(CCc4cccc5c4n(C)c(=O)n5C4CCC(=O)NC4=O)CC3)CC2)C1 (centres unmarked) [P-252, 3-(4-(2-(1-(2-(4-(5-acetyl-3-(7-(difluoromethyl)-6-(1-methyl-1H-pyrazol-4-yl)-3,4-dihydroquinolin-1(2H)-yl)-4,5,6,7-tetrahydro-1H-pyrazolo[4,3-c]pyridin-1-yl)piperidin-1-yl)ethyl)piperidin-4-yl)ethyl)-3-methyl-2-oxo-2,3-dihydro-1H-benzo[d]imidazol-1-yl)piperidine-2,6-dione] | 0.1 |  |  |  | > 80
